The experiment deals with Streptococcus pyogenes (ATCC# 97-03 14289). The experiment in a line: Anti-microbial screen (percent inhibition of growth, OD 570 nm). The experiment is classed as cell-based. As to conditions: Conc 0.1776 mg ml. The procedure: Streptococcus pyogenes (ATCC# 97-03 14289) was grown in Todd Hewitt Broth (THB) (Difco Laboratories #0492-17-6) overnight until reaching an optical density of (OD=0.636@570 nm) by reading 0.1 ml in a 96 well microtiter plate in a Molecular Devices Thermomax. This preparation was kept frozen as stocks in 30% v/v glycerol in 1.5 ml aliquots at […] until use. Prior to experiments, 6 ml aliquots were thawed and diluted into 50 ml 2×THB. 60 ul of this dilution was added to 92 wells of microtiter plate. To three wells THB (200 ul) was added to serve as a blank and a sterility control. Test compounds in DMSO and appropriate concentrations of DMSO were added to Growth/Solvent Controls at 0 time. Plates were read at 0 time at 570 nm in the Molecular Devices plate reader to obtain compounds correction factors for insoluble or colored compounds. Plates were read again at 4 hours.
Percent inhibition is calculated with the following formula:
Color correct=O.D. 0 hr - Blank 0 hr)-(Solvent Control Ohr - Blank 0 hr) [formula]

Where [1] appears, read: Spy4H: Streptococcus pyogenes, read at 4 hours, OD 570 nm.
Setting [2] is: Streptococcus pyogenes, Assay Spy4H, plates read at 570 nm at 0 time and at 4 hours.

One may read the inhibition of growth as the change of the read-out against control, counted positive when it falls. Higher therefore signals strong suppression.

Turning to `Cc1ccc(CN(Cc2ccc(O)cc2)/C(=N\c2ccc(C(F)(F)F)cc2)Sc2ccc(C)cc2C)cc1` [Cmpd 7], the inhibition of growth at 177.6 µg/mL under setting [1] was determined as 63.7%. `Cc1ccc(CN(Cc2ccc(O)cc2)/C(=N/c2ccc(Cl)c(Cl)c2)Sc2ccc(C)cc2C)cc1` [Cmpd 8]: under setting [1], the inhibition of growth at 177.6 µg/mL is 57.5%. Compound `Cc1ccc(CN(Cc2ccc(O)cc2)/C(=N/c2cc(Cl)cc(Cl)c2)Sc2ccc(C)cc2C)cc1` [Cmpd 13] showed an inhibition of growth at 177.6 µg/mL under setting [1] of 65.7%. For the compound `Cc1ccc(CN(Cc2ccc(O)cc2)/C(=N\c2ccc(Cl)c([N+](=O)[O-])c2)Sc2ccc(C)cc2C)cc1` [Cmpd 23], the inhibition of growth at 177.6 µg/mL under setting [1] amounted to 61.3%. Same read-out and setting: next, `Cc1ccc(CN(Cc2ccc(O)cc2)/C(=N/c2ccccc2[N+](=O)[O-])Sc2ccc(C)cc2C)cc1` [Cmpd 26]: 58.1%.

Under setting [2], `COc1ccc(C)cc1/N=C(\Sc1ccc(C)cc1C)N(Cc1ccc(C)cc1)Cc1ccc(O)cc1` [Cmpd 29] gave an inhibition of growth at 177.6 µg/mL of 53.7%. Turning to `Cc1ccc(CN(Cc2ccc(O)cc2)/C(=N\c2ccc(Cl)c(C(F)(F)F)c2)Sc2ccc(C)cc2C)cc1` [Cmpd 33], the inhibition of growth at 177.6 µg/mL under setting [1] was determined as 57.8%. `Cc1ccc(CN(Cc2ccc(O)cc2)/C(=N/c2ccc(F)c(F)c2)Sc2ccc(C)cc2C)cc1` [Cmpd 36] gave an inhibition of growth at 177.6 µg/mL under setting [2] of 56.8%. `COc1cccc(S/C(=N\Cc2ccc(F)cc2)N(Cc2ccc(O)cc2)Cc2ccc(Cl)c(Cl)c2)c1` [Cmpd 44] yielded an inhibition of growth at 177.6 µg/mL under setting [1] of 67.5%. Regarding `COc1cccc(S/C(=N\c2cccc(C(F)(F)F)c2)N(Cc2ccc(O)cc2)Cc2ccc(Cl)c(Cl)c2)c1` [Cmpd 46], the inhibition of growth at 177.6 µg/mL under setting [1] was determined as 60.6%. `COc1cccc(S/C(=N\c2ccc(C(F)(F)F)cc2)N(Cc2ccc(O)cc2)Cc2ccc(Cl)c(Cl)c2)c1` [Cmpd 47] yielded an inhibition of growth at 177.6 µg/mL under setting [1] of 85.8%. As to `COc1cccc(S/C(=N\c2cccc(Cl)c2)N(Cc2ccc(O)cc2)Cc2ccc(Cl)c(Cl)c2)c1` [Cmpd 52], 177.6 µg/mL produced 52.6% inhibition of growth under setting [2]. Regarding `COc1cccc(S/C(=N\c2cc(Cl)cc(Cl)c2)N(Cc2ccc(O)cc2)Cc2ccc(Cl)c(Cl)c2)c1` [Cmpd 53], the inhibition of growth at 177.6 µg/mL under setting [1] worked out at 70.2%. The compound `COc1cccc(S/C(=N\c2ccc(Cl)c([N+](=O)[O-])c2)N(Cc2ccc(O)cc2)Cc2ccc(Cl)c(Cl)c2)c1` [Cmpd 63] yielded an inhibition of growth at 177.6 µg/mL under setting [1] of 66.8%. On the same count and under the same terms, next, `COc1cccc(S/C(=N/c2ccc(Cl)c(C(F)(F)F)c2)N(Cc2ccc(O)cc2)Cc2ccc(Cl)c(Cl)c2)c1` [Cmpd 73]: 85.8%. The compound `COc1cccc(S/C(=N/c2ccc(OC(F)(F)F)cc2)N(Cc2ccc(O)cc2)Cc2ccc(Cl)c(Cl)c2)c1` [Cmpd 75] gave an inhibition of growth at 177.6 µg/mL under setting [2] of 52.3%.

In the case of `COCCN(Cc1cccc(O)c1)/C(=N\c1cccc(F)c1)Sc1ccc(C)cc1C` [Cmpd 83], under setting [1], the inhibition of growth at 177.6 µg/mL was 70.9%. Under setting [1], `COCCN(Cc1cccc(O)c1)/C(=N\c1ccc(F)cc1F)Sc1ccc(C)cc1C` [Cmpd 85] showed an inhibition of growth at 177.6 µg/mL of 82.3%. Compound `COCCN(Cc1cccc(O)c1)/C(=N\c1ccc(C)cc1)Sc1ccc(C)cc1C` [Cmpd 90] registered an inhibition of growth at 177.6 µg/mL under setting [1] of 81.3%. As for `COCCN(Cc1cccc(O)c1)/C(=N\c1cccc(Cl)c1)Sc1ccc(C)cc1C` [Cmpd 92], under setting [1], the inhibition of growth at 177.6 µg/mL was found to be 59.8%. In turn, `COCCN(Cc1cccc(O)c1)/C(=N\c1ccc(F)c(Cl)c1)Sc1ccc(C)cc1C` [Cmpd 94] came in with an inhibition of growth at 177.6 µg/mL under setting [2] of 54%. Under setting [1], `CCc1cccc(/N=C(/Sc2ccc(C)cc2C)N(CCOC)Cc2cccc(O)c2)c1` [Cmpd 98] gave an inhibition of growth at 177.6 µg/mL of 69.9%. Under setting [1], `COCCN(Cc1cccc(O)c1)/C(=N\c1ccc(Cl)c([N+](=O)[O-])c1)Sc1ccc(C)cc1C` [Cmpd 103] came in with an inhibition of growth at 177.6 µg/mL of 58.9%. As for `COCCN(Cc1cccc(O)c1)/C(=N\c1cc(C)ccc1OC)Sc1ccc(C)cc1C` [Cmpd 109], the inhibition of growth at 177.6 µg/mL under setting [2] amounted to 56.3%. `COCCN(Cc1cccc(O)c1)/C(=N\c1ccc(Cl)c(C(F)(F)F)c1)Sc1ccc(C)cc1C` [Cmpd 113]: the inhibition of growth at 177.6 µg/mL under setting [1] came out at 59.8%. In turn, `COc1cccc(S/C(=N\Cc2ccc(F)cc2)N(Cc2ccc(C)cc2)Cc2ccc(O)cc2)c1` [Cmpd 124] returned an inhibition of growth at 177.6 µg/mL under setting [2] of 55.6%. Under setting [1], `COc1cccc(S/C(=N/c2ccc(C(F)(F)F)cc2)N(Cc2ccc(C)cc2)Cc2ccc(O)cc2)c1` [Cmpd 127] showed an inhibition of growth at 177.6 µg/mL of 61.5%. Compound `COc1cccc(S/C(=N\c2cc(Cl)cc(Cl)c2)N(Cc2ccc(C)cc2)Cc2ccc(O)cc2)c1` [Cmpd 133] registered an inhibition of growth at 177.6 µg/mL under setting [1] of 94.3%. The compound `COc1cccc(S/C(=N/c2ccc(Cl)c([N+](=O)[O-])c2)N(Cc2ccc(C)cc2)Cc2ccc(O)cc2)c1` [Cmpd 143] gave an inhibition of growth at 177.6 µg/mL under setting [1] of 93.6%. Same read-out and setting: next, `COc1cccc(S/C(=N/c2ccc(Cl)c(C(F)(F)F)c2)N(Cc2ccc(C)cc2)Cc2ccc(O)cc2)c1` [Cmpd 153]: 70.6%; `Cc1ccc(S/C(=N\c2ccc(C(F)(F)F)cc2)N(Cc2ccc(O)cc2)Cc2cccc(Cl)c2)cc1` [Cmpd 167]: 71%.

Compound `Cc1ccc(S/C(=N\c2ccc(Cl)c(Cl)c2)N(Cc2ccc(O)cc2)Cc2cccc(Cl)c2)cc1` [Cmpd 168] showed an inhibition of growth at 177.6 µg/mL under setting [2] of 49.5%.

With `Cc1ccc(S/C(=N\c2cc(Cl)cc(Cl)c2)N(Cc2ccc(O)cc2)Cc2cccc(Cl)c2)cc1` [Cmpd 173], at 177.6 µg/mL the inhibition of growth under setting [1] was 70.7%. Under setting [1], `Cc1ccc(S/C(=N\c2ccc(Cl)c([N+](=O)[O-])c2)N(Cc2ccc(O)cc2)Cc2cccc(Cl)c2)cc1` [Cmpd 183] gave an inhibition of growth at 177.6 µg/mL of 64.8%. `Cc1ccc(S/C(=N\c2ccccc2[N+](=O)[O-])N(Cc2ccc(O)cc2)Cc2cccc(Cl)c2)cc1` [Cmpd 186]: the inhibition of growth at 177.6 µg/mL under setting [2] is 56.5%. Compound `COc1ccc(C)cc1/N=C(\Sc1ccc(C)cc1)N(Cc1ccc(O)cc1)Cc1cccc(Cl)c1` [Cmpd 189] registered an inhibition of growth at 177.6 µg/mL under setting [1] of 61.8%.

Consider `Cc1ccc(CN(Cc2cccc(O)c2)/C(=N/Cc2cccc(C)c2)Sc2ccc(C)cc2C)cc1` [Cmpd 202], for which at 177.6 µg/mL the inhibition of growth under setting [2] was 51.9%.

`Cc1ccc(CN(Cc2cccc(O)c2)/C(=N/Cc2ccc(F)cc2)Sc2ccc(C)cc2C)cc1` [Cmpd 204] registered an inhibition of growth at 177.6 µg/mL under setting [1] of 69.1%. Still for that read-out and setting: next, `Cc1ccc(CN(Cc2cccc(O)c2)/C(=N\c2ccc(C(F)(F)F)cc2)Sc2ccc(C)cc2C)cc1` [Cmpd 207]: 95.9%. `Cc1ccc(CN(Cc2cccc(O)c2)/C(=N/c2cc(Cl)cc(Cl)c2)Sc2ccc(C)cc2C)cc1` [Cmpd 213]: at 177.6 µg/mL the inhibition of growth under setting [2] was 57.1%. In the case of `Cc1ccc(CN(Cc2cccc(O)c2)/C(=N/c2ccccc2[N+](=O)[O-])Sc2ccc(C)cc2C)cc1` [Cmpd 226], the inhibition of growth at 177.6 µg/mL under setting [1] came out at 74.4%.

As to `COc1ccc(C)cc1/N=C(\Sc1ccc(C)cc1C)N(Cc1ccc(C)cc1)Cc1cccc(O)c1` [Cmpd 229], at 177.6 µg/mL the inhibition of growth under setting [1] was 65.8%. With `Cc1ccc(CN(Cc2cccc(O)c2)/C(=N\c2ccc(Cl)c(C(F)(F)F)c2)Sc2ccc(C)cc2C)cc1` [Cmpd 233], under setting [1], testing at 177.6 µg/mL gave an inhibition of growth of 60.5%. With `Cc1ccc(S/C(=N/Cc2ccccc2)N(Cc2ccc(O)cc2)CC(C)C)cc1` [Cmpd 241], the inhibition of growth at 177.6 µg/mL under setting [2] stood at 49.8%. The compound `Cc1ccc(S/C(=N/Cc2ccc(F)cc2)N(Cc2ccc(O)cc2)CC(C)C)cc1` [Cmpd 244] showed an inhibition of growth at 177.6 µg/mL under setting [2] of 51.6%. As to `Cc1ccc(S/C(=N/c2ccc(C(F)(F)F)cc2)N(Cc2ccc(O)cc2)CC(C)C)cc1` [Cmpd 247], testing at 177.6 µg/mL under setting [1] gave an inhibition of growth of 60.3%. `Cc1ccc(S/C(=N/c2ccc(Cl)c(Cl)c2)N(Cc2ccc(O)cc2)CC(C)C)cc1` [Cmpd 248] registered an inhibition of growth at 177.6 µg/mL under setting [2] of 55%. `Cc1ccc(S/C(=N/c2cc(Cl)cc(Cl)c2)N(Cc2ccc(O)cc2)CC(C)C)cc1` [Cmpd 253] had an inhibition of growth at 177.6 µg/mL under setting [1] of 66.5%.

`Cc1ccc(S/C(=N/c2ccc(F)c(Cl)c2)N(Cc2ccc(O)cc2)CC(C)C)cc1` [Cmpd 254] displayed an inhibition of growth at 177.6 µg/mL under setting [2] of 49.2%.

As to `Cc1ccc(S/C(=N/c2ccc(Cl)c([N+](=O)[O-])c2)N(Cc2ccc(O)cc2)CC(C)C)cc1` [Cmpd 263], at 177.6 µg/mL the inhibition of growth under setting [2] was 53.8%.

Consider `Cc1ccc(S/C(=N/c2ccc(Cl)c(C(F)(F)F)c2)N(Cc2ccc(O)cc2)CC(C)C)cc1` [Cmpd 273], for which the inhibition of growth at 177.6 µg/mL under setting [1] turned out to be 64.6%. Under setting [1], `Cc1ccc(S/C(=N/c2ccc(F)c(F)c2)N(Cc2ccc(O)cc2)CC(C)C)cc1` [Cmpd 276] registered an inhibition of growth at 177.6 µg/mL of 62.1%. Compound `Cc1cccc(C/N=C(\Sc2ccc(C)cc2C)N(CCc2ccc(Cl)cc2)Cc2cccc(O)c2)c1` [Cmpd 282] came in with an inhibition of growth at 177.6 µg/mL under setting [2] of 49.8%. For the compound `Cc1ccc(S/C(=N\Cc2ccc(F)cc2)N(CCc2ccc(Cl)cc2)Cc2cccc(O)c2)c(C)c1` [Cmpd 284], the inhibition of growth at 177.6 µg/mL under setting [1] is 64%.

`Cc1ccc(S/C(=N\c2ccc(C(F)(F)F)cc2)N(CCc2ccc(Cl)cc2)Cc2cccc(O)c2)c(C)c1` [Cmpd 287]: the inhibition of growth at 177.6 µg/mL under setting [1] was 97.7%. Compound `Cc1ccc(S/C(=N\c2ccc(F)c(Cl)c2)N(CCc2ccc(Cl)cc2)Cc2cccc(O)c2)c(C)c1` [Cmpd 294] gave an inhibition of growth at 177.6 µg/mL under setting [2] of 56.6%. For the compound `Cc1ccc(S/C(=N/c2ccc(Cl)c(C(F)(F)F)c2)N(CCc2ccc(Cl)cc2)Cc2cccc(O)c2)c(C)c1` [Cmpd 313], the inhibition of growth at 177.6 µg/mL under setting [2] is 50.4%. Still for that read-out and setting: next, `COc1cccc(CN(Cc2cccc(O)c2)/C(=N/c2ccc(C(F)(F)F)cc2)Sc2cccc(OC)c2)c1` [Cmpd 327]: 56.7%.

The values above are taken from patent publication US20040010036A1, “N,N, -Substituted s-Aryl-Isothioureas, N,N,N, -Substituted s-Aryl-Isothioureas and combinatorial libraries thereof” (priority 2002, published 2004).
